Measurements from US9795597B2, “Cyclopropylamines as LSD1 inhibitors” (GlaxoSmithKline Intellectual Property (No.2) Limited, priority 2011, dated 2017).

How the values were obtained:
LSD1 = biological target: T1, LSD1 (Homo sapiens, UniProt O60341); assay: Biochemical assay for LSD-1 activity (luminescence, H3K4 dimethylated peptide substrate); conditions: average of two or more tests; 30 min preincubation of enzyme and compound; read-out: LSD1 PIC50 MEAN (converted)
T1 construct: made in house
Method: Biochemical Assay for LSD-1 Activity
The LSD-1 luminescence assay is performed in a buffer containing 25 mM Tris, pH 7.5, 50 mM potassium chloride, 0.02% heat-denatured BSA, 2 mM CHAPS and milliQ ultrapure water. […] The enzyme and test compound are allowed to incubate together for 30 minutes at room temperature. Two microliters of the substrate mix are then added to each well of the plate to initiate the reaction. The plates are covered, protected from light and allowed to incubate for two hours at room temperature. Then, 4 uL of HyPerBlu peroxide detection luminescence reagent (Lumigen/Beckman Coulter, cat# HPB-00005) is added to each well to quench the demethylase reaction and generate the peroxide-dependent luminescence signal. The plates are then incubated for 15-30 minutes in the dark at room temperature prior to being read for Luminescence using a Perkin Elmer Viewlux plate reader. Percent inhibition is calculated based on no compound and no enzyme controls, and inhibition curves are then plotted to determine PIC50 values.

MAO-B = biological target: T2, MAO-B (Homo sapiens, UniProt P27338); assay: Biochemical assay for MAO-B activity (FLINT, benzylamine/amplex red); conditions: average of two or more tests; 30 min preincubation of enzyme and compound; read-out: MAOB PIC50 MEAN (converted)
T2 construct: purchased Gentest-BD Biosciences 456284
T2 sequence (P27338 1-520): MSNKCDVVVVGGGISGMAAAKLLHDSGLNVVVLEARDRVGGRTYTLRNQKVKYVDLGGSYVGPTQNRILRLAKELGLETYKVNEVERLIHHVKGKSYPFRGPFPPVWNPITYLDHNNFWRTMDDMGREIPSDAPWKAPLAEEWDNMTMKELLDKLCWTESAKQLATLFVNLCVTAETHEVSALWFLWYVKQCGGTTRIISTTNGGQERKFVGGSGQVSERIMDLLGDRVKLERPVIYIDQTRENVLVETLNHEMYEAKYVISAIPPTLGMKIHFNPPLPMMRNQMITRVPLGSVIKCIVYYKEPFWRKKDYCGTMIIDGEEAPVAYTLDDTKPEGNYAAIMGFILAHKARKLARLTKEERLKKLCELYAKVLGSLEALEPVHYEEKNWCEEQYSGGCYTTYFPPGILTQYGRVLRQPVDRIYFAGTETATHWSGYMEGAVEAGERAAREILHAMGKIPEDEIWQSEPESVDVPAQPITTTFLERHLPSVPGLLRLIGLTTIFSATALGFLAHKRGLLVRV
Method: Biochemical Assay for MAO-B Activity
The MAO-B FLINT assay is performed in a buffer containing 50 mM potassium phospate, pH 7.4, in milliQ ultrapure water. […] The enzyme and test compound are allowed to incubate together for 30 minutes at room temperature. Five microliters of the substrate mix are then added to each well of the plate to initiate the reaction. The plates are covered, protected from light and allowed to incubate for one hour at room temperature. […] Percent inhibition is calculated based on no compound and no enzyme controls, and inhibition curves are then plotted to determine PIC50 values.

Row | SMILES | IC50 (LSD1) | IC50 (MAO-B)
1 | c1ccc([C@@H]2C[C@H]2NCC2CCCCC2)cc1 (relative stereo) [Example 7, trans-N-(Cyclohexylmethyl)-2-phenylcyclopropanamine] | 0.158 µM | 0.398 µM
2 | c1ccc(CN2CCC(CN[C@@H]3C[C@H]3c3ccccc3)CC2)cc1 (relative stereo) [Example 8, [trans-2-Phenylcyclopropyl]{[1-(phenylmethyl)-4-piperidinyl]methyl}amine] | 0.00631 µM | 25.1 µM
3 | CC(C)(C)OC(=O)N[C@H]1CC[C@H](CN[C@@H]2C[C@H]2c2ccccc2)CC1 (relative stereo) [Example 9, 1,1-Dimethylethyl[trans-4-({[trans-2-phenylcyclopropyl]amino}methyl)cyclohexyl]carbamate] | 0.158 µM | 0.398 µM
4 | N[C@H]1CC[C@H](CN[C@@H]2C[C@H]2c2ccccc2)CC1 (relative stereo) [Example 10, trans-4-({[trans-2-Phenylcyclopropyl]amino}methyl)cyclohexanamine] | 0.00794 µM | 7.94 µM
5 | OCCN1CCC(CN[C@@H]2C[C@H]2c2ccccc2)CC1 (relative stereo) [Example 11, 2-(4-(((trans-2-Phenylcyclopropyl)amino)methyl)piperidin-1-yl)ethanol] | 0.0126 µM | 31.6 µM
6 | O=C(Nc1ccccc1)N1CCC(CN[C@@H]2C[C@H]2c2ccccc2)CC1 (relative stereo) [Example 12, N-Phenyl-4-(((trans-2-phenylcyclopropyl)amino)methyl)piperidine-1-carboxamide] | 0.0794 µM | 2 µM
7 | O=S(=O)(c1ccccc1)N1CCC(CN[C@@H]2C[C@H]2c2ccccc2)CC1 (relative stereo) [Example 13, trans-2-Phenyl-N-((1-(phenylsulfonyl)piperidin-4-yl)methyl)cyclopropanamine] | 0.0501 µM | 5.01 µM
8 | O=C(c1ccccc1)N1CCC(CN[C@@H]2C[C@H]2c2ccccc2)CC1 (relative stereo) [Example 14, Phenyl(4-(((trans-2-phenylcyclopropyl)amino)methyl)piperidin-1-yl)methanone] | 0.126 µM | 39.8 µM
9 | CC(=O)N1CCC(CN[C@@H]2C[C@H]2c2ccccc2)CC1 (relative stereo) [Example 15, 1-(4-(((trans-2-Phenylcyclopropyl)amino)methyl)piperidin-1-yl)ethanone] | 0.316 µM | 15.8 µM
10 | CC(=O)N(CC1CCNCC1)[C@@H]1C[C@H]1c1ccccc1 (relative stereo) [Example 17, N-(trans-2-Phenylcyclopropyl)-N-(piperidin-4-ylmethyl)acetamide] | 20 µM | 63.1 µM
11 | O=C(OCc1ccccc1)N1CCC(CN[C@@H]2C[C@H]2c2ccccc2)CC1 (relative stereo) [Example 18, Benzyl 4-(((trans-2-phenylcyclopropyl)amino)methyl)piperidine-1-carboxylate] | 0.0316 µM | 0.631 µM
12 | CN1CCC(CN[C@@H]2C[C@H]2c2ccccc2)CC1 (relative stereo) [Example 20, [(1-Methyl-4-piperidinyl)methyl][trans-2-phenylcyclopropyl]amine] | 0.00631 µM | 25.1 µM
13 | O=C(O)c1ccc(CN2CCC(CN[C@H]3C[C@@H]3c3ccccc3)CC2)cc1 (relative stereo) [Example 26, 4-((4-(((trans-2-phenylcyclopropyl)amino)methyl)piperidin-1-yl)methyl)benzoic acid] | 0.2 µM | 50.1 µM
14 | c1ccc(C2C[C@@H]2NCC2CCCNC2)cc1 (stereo in doubt) [Example 16, [trans-2-Phenylcyclopropyl](3-piperidinylmethyl)amine] | 0.00794 µM | 39.8 µM
15 | CC(C)(C)OC(=O)N1CCCC(CN[C@H]2CC2c2ccccc2)CC1 (stereo in doubt) [Example 21, 1,1-Dimethylethyl 4-({[trans-2-phenylcyclopropyl]amino}methyl)hexahydro-1H-azepine-1-carboxylate] | 2 µM | 15.8 µM
16 | c1ccc(C2C[C@@H]2NCC2CCCNCC2)cc1 (stereo in doubt) [Example 22, N-(Hexahydro-1H-azepin-4-ylmethyl)-trans-2-phenylcyclopropanamine] | 0.0794 µM | 100 µM
17 | CN(CC1CCNCC1)[C@H]1CC1c1ccccc1 (some centres unmarked) [Example 19] |  | 31.6 µM

Other lines, results leading:

Row | IC50 (LSD1) | IC50 (MAO-B) | SMILES
18 | 0.2 µM | 63.1 µM | O=C(O)CN1CCC(CN[C@H]2C[C@@H]2c2ccccc2)CC1 (relative stereo) [Example 27, 2-(4-(((trans-2-phenylcyclopropyl)amino)methyl)piperidin-1-yl)acetic acid]
19 | 0.0158 µM | 50.1 µM | c1ccc([C@@H]2C[C@H]2NCC2CCN(Cc3ccncc3)CC2)cc1 (relative stereo) [Example 33, trans-2-Phenyl-N-((1-(pyridin-4-ylmethyl)piperidin-4-yl)methyl)cyclopropanamine]
20 | 0.0158 µM | 31.6 µM | Fc1ccccc1C[N+]1(Cc2ccccc2F)CCC(CN[C@@H]2C[C@H]2c2ccccc2)CC1 (relative stereo) [Example 35, 1,1-Bis(2-fluorobenzyl)-4-(((trans-2-phenylcyclopropyl)amino)methyl)piperidin-1-ium chloride]
21 | 0.00631 µM | 0.501 µM | CS(=O)(=O)c1ccc(CN2CCC(CN[C@@H]3C[C@H]3c3ccccc3)CC2)cc1 (relative stereo) [Example 43, trans-N-((1-(4-(Methylsulfonyl)benzyl)piperidin-4-yl)methyl)-2-phenylcyclopropanamine]
22 | 0.1 µM | 15.8 µM | Cc1cc(CN2CCC(CN[C@@H]3C[C@H]3c3ccccc3)CC2)no1 (relative stereo) [Example 47, trans-N-((1-((5-Methylisoxazol-3-yl)methyl)piperidin-4-yl)methyl)-2-phenylcyclopropanamine]
23 | 0.0251 µM | 7.94 µM | OB1OCc2c(CN3CCC(CN[C@@H]4C[C@H]4c4ccccc4)CC3)cccc21 (relative stereo) [Example 55, 4-((4-(((trans-2-Phenylcyclopropyl)amino)methyl)piperidin-1-yl)methyl)benzo[c][1,2]oxaborol-1(3H)-ol]
24 | 0.00794 µM | 31.6 µM | OB(O)c1ccc(CN2CCC(CN[C@@H]3C[C@H]3c3ccccc3)CC2)cc1 (relative stereo) [Example 57, (4-((4-(((trans-2-phenylcyclopropyl)amino)methyl)piperidin-1-yl)methyl)phenyl)boronic acid]
25 | 0.2 µM | 31.6 µM | CN(CCC1CCNCC1)[C@@H]1C[C@H]1c1ccccc1 (relative stereo) [Example 77, trans-N-Methyl-2-phenyl-N-(2-(piperidin-4-yl)ethyl)cyclopropanamine]
26 | 0.00631 µM | 15.8 µM | O=S(=O)(Nc1ccc([C@@H]2C[C@H]2NCC2CCNCC2)cc1)c1ccccc1 (relative stereo) [Example 91, N-(4-((trans)-2-((piperidin-4-ylmethyl)amino)cyclopropyl)phenyl)benzenesulfonamide]
27 | 0.0794 µM | 15.8 µM | Cc1noc(C)c1S(=O)(=O)N1CCC(CN[C@@H]2C[C@H]2c2ccccc2)CC1 (relative stereo) [Example 100, trans-N-((1-((3,5-dimethylisoxazol-4-yl)sulfonyl)piperidin-4-yl)methyl)-2-phenylcyclopropanamine]
